Results reported in paper PMC9944328 (Nature Communications, 2023).
Values joined by “and” are separate entries in the source; they are usually repeats but may differ in a detail not shown here. Equal values may be shown once.

Molecular target: SSTR2 (Homo sapiens, UniProt P30874)
Experiment: SSTRs Gi-mediated cAMP inhibition, GloSensor, HEK293, 5 μM forskolin, 15 min room temperature (SSTR2 wild-type);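 as to Bottom (best-fit value): normalized to the maximal wild-type response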;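 as to Bottom (best-fit): normalized to the maximal wild-type response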;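 as to Span (best-fit value), cAMP inhibition: normalized to the maximal wild-type response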;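 as to Span (best-fit value): normalized to the maximal wild-type response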;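 as to Span (best-fit): normalized to the maximal wild-type response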;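 as to Span: normalized to the maximal wild-type response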;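 as to Top (best-fit): normalized to the maximal wild-type response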
Type: cell-based
Set-up: Best-fit Top, cAMP inhibition / Span, cAMP inhibition / Best-fit Bottom / Best-fit Top / Best-fit Span / Bottom / Span (best-fit value), cAMP inhibition / Top (best-fit value), cAMP inhibition: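 normalized to the maximal wild-type response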
Conditions: for Bottom (best-fit value) / LogEC50 (best-fit value) / Span (best-fit value) / Top (best-fit value): Y205A panel
Procedure: The levels of the intracellular 3′, 5′-cyclic AMP (cAMP) were measured by the GloSensor cAMP assay (Promega) as described in the previous studies[28],[41] which has been widely used. The human full-length SSTRs and mutants were cloned into the pcDNA3.1+ vector with a HA signal sequence followed by a Flag tag at the N-terminus. HEK293 cells (ATCC, CRL-1573) were seeded into 6-well microplates at a density of 1.0 × 10^6 cells/well and cultured for 24 h at 37 °C with 5% CO2. Cells were then co-transfected with SSTR wild-type or mutants and GloSensor plasmids. After 24 h of transfection, the cells were dissociated with TrypLE™ Express Enzyme (1X) (Thermo Fisher Scientific) and collected by centrifugation at 500 × g for 5 min. Then the collected cells were suspended in Hank’s balanced salt solution [HBSS (Thermo Fisher Scientific)] supplemented with […] (YEASEN), and then the suspension cells were seeded into 96-well plates with 90 μl/well. After incubating at room temperature for 40 min, 5 μM forskolin and ligands diluted in HBSS were added to each well and the plates were incubated at room temperature for 15 min. […] were measured using the Synergy H1 microplate reader (BioTek) and the data presented are means of at least three independent experiments.

[1] = WT-2 (run 2 of each mutant's batch)
[2] = WT-3 (run 3 of each mutant's batch)
[3] = cAMP inhibition best-fit, D122A set, WT-1
[4] = cAMP inhibition best-fit, D122A set, WT-2
[5] = cAMP inhibition best-fit, D122A set, WT-3
[6] = cAMP inhibition best-fit, F127A set, WT-1
[7] = cAMP inhibition best-fit, F127A set, WT-2
[8] = cAMP inhibition best-fit, F127A set, WT-3
[9] = cAMP inhibition best-fit, I130A set, WT-1
[10] = cAMP inhibition best-fit, I130A set, WT-2
[11] = cAMP inhibition best-fit, I130A set, WT-3
[12] = cAMP inhibition best-fit, Q102A set, WT-1
[13] = cAMP inhibition best-fit, Q102A set, WT-2
[14] = cAMP inhibition best-fit, Q102A set, WT-3
[15] = cAMP inhibition best-fit, Q126A set, WT-1
[16] = cAMP inhibition best-fit, Q126A set, WT-2
[17] = cAMP inhibition best-fit, Q126A set, WT-3
[18] = cAMP inhibition best-fit, V103A set, WT-1
[19] = cAMP inhibition best-fit, V103A set, WT-2
[20] = cAMP inhibition best-fit, V103A set, WT-3

Sequence of SSTR2 (P30874 whole entry): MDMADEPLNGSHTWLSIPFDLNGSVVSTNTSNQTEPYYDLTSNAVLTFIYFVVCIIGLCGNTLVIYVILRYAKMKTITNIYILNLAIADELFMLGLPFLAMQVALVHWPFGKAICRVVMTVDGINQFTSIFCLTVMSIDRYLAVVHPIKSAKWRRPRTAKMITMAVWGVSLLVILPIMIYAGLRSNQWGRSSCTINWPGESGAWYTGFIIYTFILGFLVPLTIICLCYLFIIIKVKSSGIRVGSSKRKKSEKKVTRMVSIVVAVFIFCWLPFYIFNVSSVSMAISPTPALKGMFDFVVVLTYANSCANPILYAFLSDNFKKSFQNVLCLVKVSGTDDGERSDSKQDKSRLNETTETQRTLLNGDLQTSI

## N#Cc1cccc(-c2ccc3ncc(-c4cc(F)cc(F)c4)c(N4CCC(N)CC4)c3c2)c1O [paltusotine]
WT-1, run paired with T194H
  Span (best-fit): 111
  Top (best-fit): 106.2
WT-1, run paired with V103N
  Bottom (best-fit): 16.51
  LogEC50: -8.678
  Span (best-fit): 89.51
  Top (best-fit): 106
WT-1, run paired with Y205R
  LogEC50: -9.27
  Span (best-fit): 108.3
  Top (best-fit): 106.3
[1]
  Span (best-fit value), cAMP inhibition: 111.8 and 113.8 and 107.7 and 112.3
  Top (best-fit value), cAMP inhibition: 108 and 108.3 and 107.8 and 112.4
WT-2, run paired with D295F
  Bottom (best-fit): -1.411
  LogEC50: -9.3
  Span (best-fit): 105.2
  Top (best-fit): 103.8
WT-2, run paired with F294Y
  Bottom (best-fit): -1.411
  LogEC50: -9.3
  Span (best-fit): 105.2
  Top (best-fit): 103.8
WT-2, run paired with I195M
  Bottom (best-fit): 10.59
  LogEC50: -8.695
  Span (best-fit): 88.58
  Top (best-fit): 99.16
WT-2, run paired with T194H
  Bottom (best-fit): -0.3773
  LogEC50: -8.796
  Span (best-fit): 113.8
  Top (best-fit): 113.4
WT-2, run paired with V103N
  Bottom (best-fit): 8.218
  LogEC50: -8.87
  Span (best-fit): 100.4
  Top (best-fit): 108.6
WT-2, run paired with Y205R
  LogEC50: -9.271
  Span (best-fit): 104.8
  Top (best-fit): 105.4
[2]
  Span (best-fit value), cAMP inhibition: 106.7 and 111.8 and 113.8 and 112.4 and 113.7
  Top (best-fit value), cAMP inhibition: 107.8 and 108 and 112 and 113.6
WT-3, run paired with D295F
  Bottom (best-fit): 12.84
  LogEC50: -8.964
  Span (best-fit): 85.7
  Top (best-fit): 98.54
WT-3, run paired with F294Y
  Bottom (best-fit): -4.818
  LogEC50: -8.937
  Span (best-fit): 111
  Top (best-fit): 106.2
WT-3, run paired with T194H
  Bottom (best-fit): 8.218
  LogEC50: -8.87
  Span (best-fit): 100.4
  Top (best-fit): 108.6
WT-3, run paired with V103N
  Bottom (best-fit): -2.506
  LogEC50: -8.966
  Span (best-fit): 107.7
  Top (best-fit): 105.2
WT-3, run paired with Y205R
  LogEC50: -8.678
  Span (best-fit): 89.51
  Top (best-fit): 106
WT-1 (run 1)
  Bottom (best-fit value): -1.411
  LogEC50 (best-fit value): -9.3
  Span (best-fit value): 105.2
  Top (best-fit value): 103.8
WT-2 (run 2)
  Bottom (best-fit value): 7.891
  LogEC50 (best-fit value): -9.109
  Span (best-fit value): 96.39
  Top (best-fit value): 104.3
WT-3 (run 3)
  Bottom (best-fit value): 0.01788
  LogEC50 (best-fit value): -8.988
  Span (best-fit value): 104.7
  Top (best-fit value): 104.8
[3]
  Bottom: -4.038
  LogEC50: -8.63
  Span: 111.8
  Top: 107.8
[4]
  Bottom: -5.769
  LogEC50: -8.575
  Span: 113.8
  Top: 108
[5]
  Bottom: -1.411
  LogEC50: -9.3
  Span: 105.2
  Top: 103.8
[6]
  Bottom: -0.438
  LogEC50: -8.811
  Span: 112.4
  Top: 112
[7]
  Bottom: -4.818
  LogEC50: -8.937
  Span: 111
  Top: 106.2
[8]
  Bottom: -0.9578
  LogEC50: -9.526
  Span: 107.3
  Top: 106.4
[9]
  Bottom: -3.466
  LogEC50: -9.53
  Span: 116.5
  Top: 113
[10]
  Bottom: -6.932
  LogEC50: -9.494
  Span: 126.2
  Top: 119.3
[11]
  Bottom: -3.016
  LogEC50: -8.949
  Span: 106.8
  Top: 103.7
[12]
  LogEC50: -9.218
  Span: 100.2
  Top: 103.5
[13]
  LogEC50: -8.923
  Span: 98.67
  Top: 106.5
[14]
  LogEC50: -8.998
  Span: 106.7
  Top: 106.1
[15]
  Bottom: 7.891
  LogEC50: -9.109
  Span: 96.39
  Top: 104.3
[16]
  Bottom: -2.459
  LogEC50: -8.801
  Span: 121.7
  Top: 119.3
[17]
  Bottom: 2.655
  LogEC50: -9.073
  Span: 104.2
  Top: 106.8
[18]
  Bottom: -2.459
  LogEC50: -8.801
  Span: 121.7
  Top: 119.3
[19]
  Bottom: 3.281
  LogEC50: -9.218
  Span: 100.2
  Top: 103.5
[20]
  Bottom: 7.801
  LogEC50: -8.923
  Span: 98.67
  Top: 106.5
